Data as given in US12616193B2, “5-(1H-indol-3-yl)-oxazole, -oxadiazole and -furan derivatives as enhancers of sperm motility” (SPERMATECH AS, priority 2020, dated 2026).
Where two headings read alike, the source gives them in different places. Blank lines part the entries; values can stand above or below the molecule they belong to.

Assays:
Human T-cells = test: Genotoxicity, comet assay (Example 4); format: cell-based
Method: Human T-cells (four concentrations of Compound No. 1 including 0 μM; two exposure times) were embedded in 1% agarose, lysed in cold 2.5 M NaCl, 0.1 M EDTA, 10 mM Tris buffer, and 1% Triton X-100, pH 10. Incubation with dithiothreitol and lithium diiodosalicylate was followed by incubation in cold 0.3M NaOH, and 1 mM EDTA for 20 min and then electrophoresis at 0.8 V/cm for 20 min in a cold room. After neutralization with PBS, and staining with SYBRGold (Invitrogen), slides were scored using the Comet Assay IV image analysis programme (Perceptive Instruments).

boar sperm [1] = test: Determination of boar sperm motility and progressive motility by CASA (Example 1); format: cell-based, Duroc boar; conditions: for EC50: 0.2 h, 12 min at 37° C., activation-% relative to DMSO-only control
Method: Duroc boar sperm samples were received from Norsvin AS and contained pooled semen from three individual boars. Semen samples were stored in Androstar® extender (mini-tube) at 18° C. prior to use. Compound No. 1 was tested in duplicates, using 2-fold serial dilutions including 10 individual concentrations starting from 100 μM. 995 μL semen were aliquoted in Eppendorf tubes and 5 μL of Compound No. 1 diluted in DMSO were added leading to the described final concentrations. The resulting semen samples were mixed gently and incubated for 12 min at 37° C. in a water bath. Subsequently, 10 μL of each semen sample was added to a counting chamber slide (Leja) and incubated on a plate incubator at 37° C. Sperm motility, progressive motility and curvilinear velocity were determined using a CASA (Hamilton Thorne), starting from 14 min. For each chamber A and B 15 individual frames were analysed and motility as well as progressive motility data was read out. The data were converted into activation-% using DMSO-only controls (set to 100% activity) by determining the percental increase of either motility or progressive motility relative to the control sample without added Compound No. 1. For the determination of EC50 values, data were fitted using Prism8 (non-linear fit, absolute IC50, x is concentration, graphpad.com).

[2] = test system: mice oocytes contacted with mice sperm cells; test: In vitro fertilization, mouse (Example 3); format: cell-based
Method: In vitro fertilization (IVF) studies were conducted to determine whether the activator compound No. 1 has any adverse effects on the fertilization process. Male mice were sacrificed, and the epididymis was opened to release the sperm into the appropriate buffer in a petri dish. The sperm cells were incubated with 50 μM of the activator compound for one hour before an aliquot was transferred to a petri dish containing oocytes. The cells were further incubated at 37° C. and 1-cell/2-cell eggs were counted after 24 hours. The experiment was performed in duplicates using sperm from the same epididymis and oocytes from two different mice.

boar sperm [3] = test: Effect of long-term storage at 18° C. on boar sperm, activator freshly added (Example 2); format: cell-based
Method: The effect of Compound No. 1 (“activator”) on the shelf-life of boar sperm was evaluated. Compound No. 1 was freshly added to stored boar sperm aliquots. The sperm samples were stored as aliquots in Eppendorf tubes (995 μl) at 18° C. During the course of one week 5 μl 10 mM activator solution in DMSO (50 μM final concentration) was added to one aliquot and the resulting solution was incubated in a water bath at for 12 min at 37° C. Subsequently, 10 μl semen samples were taken out and added to a counting chamber slide, incubated for 2 min at 37° C. and analysed as described in Example 1.

sows [4] = test: Field trial pilot study, artificial insemination of sows (Example 5); format: in vivo, pig
Method: A pilot field study included 27 sows of which 13 received untreated control sperm and 14 received sperm treated with Compound No. 1 (“activator”). Insemination doses were collected from the same animals during the course of the experiment and contained pooled semen from three individual boars. 45 μl 100 mM activator solution in DMSO was added to 89 ml boar sperm (final concentration of 50 μM) directly before insemination which was carried out within 15 to 45 min. The sperm was transferred to an insemination bottle and then the activator was added. After placing the insemination catheter into the cervix of the sow, the bottle was connected, and the sperm sample was released into the sow. The sows received insemination doses on two subsequent days. After 30 to 35 days the animals were sacrificed, the uteri were removed and embryos were counted for all […]. Organ material from 5 activator-receiving sows and 5 sows from the control group were optically inspected and samples from the uterus, cervix and vagina were formalin-fixated for histology examination. […] The formalin preparations were cut and stained with hematoxylin eosin for histological examination. The histopathological assessment included a thorough evaluation of the epithelium of the mucosa and the underlying lamina propria. In both the epithelium and lamina propria, particular emphasis was placed on acute changes. In the epithelium, the acute changes included single cell necrosis/apoptosis and infiltration of polymorphonuclear leukocytes. In the lamina propria, infiltration of polymorphonuclear leukocytes was considered as the most important acute change. […] Infiltration of lymphocytes in the epithelium and lamina propria was considered to be within the normal range of all individuals. Flattening and possibly loss of surface epithelium were partly difficult to assess. Edema and bleeding in the lamina propria were detected in several individuals. Heat and age are the denominators of leukocyte infiltration in sows and are considered normal. The average number of embryos was determined for the sows of the control group (n=11, 11 sows were in pig after insemination) and the activator-receiving group (n=13, 13 sows in pig after insemination).

sows [5] = test: Field trial study, 441 sows (Example 6); format: in vivo, pig
Text: Following the success of the pilot study reported in Example 5, a larger field trial study was conducting which included 441 sows. 224 sows received untreated control sperm and 217 received sperm treated with Compound No. 1 (“activator”).

[6] = 50 μM added to boar sperm stored at 18° C. for 1 to 8 days, FIG. 2
[7] = 217 sows with treated sperm vs 224 sows with untreated control sperm

SMILES: OO [H2O2, reference compound]
- % Tail DNA (Human T-cells; Control+ treatment): 75.4%

- EC50 (boar sperm [1]; n=6, read-out: Absolute EC50 motility): 3.31 µM
- EC50 (boar sperm [1]; n=6, read-out: absolute EC50 progressive motility): 11.2 µM
- sows with abundant infiltration of polymorphonuclear leukocytes mostly in the cervix and uterus (sows [4]; of five sows in the activator group (control: one sow), histology): Three of the five sows
SMILES: O=C(CSc1nnc(-c2c[nH]c3ccccc23)o1)Nc1ccc2c(c1)OCO2 [Compound No. 1]
- motility (boar sperm [1]; FIG. 1B, n=4, up to 100 μM): increases both motility and progressive motility in a dose-dependent manner
- progressive motility (boar sperm [1]; FIG. 1B, n=4, up to 100 μM): increases both motility and progressive motility in a dose-dependent manner
- % Tail DNA (Human T-cells; 0.5 hr exposure, 5 μM): 0.2%
- % Tail DNA (Human T-cells; 0.5 hr exposure, 50 μM): 0.6%
- % Tail DNA (Human T-cells; 0.5 hr exposure, 500 μM): 0.4%
- % Tail DNA (Human T-cells; 3 hr exposure, 5 μM): 0.5%
- % Tail DNA (Human T-cells; 3 hr exposure, 50 μM): 0.1%
- % Tail DNA (Human T-cells; 3 hr exposure, 500 μM): 0.2%
- genotoxic effects (Human T-cells; up to 500 μM, 0.5 and 3 hr exposure): No genotoxic effects
- interference with the fertilization process ([2]; 50 μM, mouse IVF): does not interfere with the fertilization process
- fertility rates vs control ([2]; mouse sperm incubated with 50 μM for one hour, eggs counted after 24 hours): comparable to the control samples
- motility of stored sperm samples (boar sperm [3]; [6]): increases motility and progressive motility, even after 7 days of storage
- progressive motility of stored sperm samples (boar sperm [3]; [6]): increases motility and progressive motility, even after 7 days of storage
- boar sperm shelf life (boar sperm [3]; 50 μM, storage at 18° C.): has a positive impact on boar sperm shelf life
- optical inspection of organ material (cervix, uteri, vaginae) (sows [4]; 5 activator-receiving sows, 30 to 35 days after insemination with sperm treated at 50 μM): mostly normal mucosa and no signs of lesions
- sows in pig after insemination (sows [4]; of 14 sows receiving sperm treated at 50 μM (control 11 of 13)): 13
- sows with necrosis/apoptosis detected (sows [4]; of five sows in the activator-receiving group (control: one), histology): one of the sows
- pregnancy rates in the sows (sows [4]; sperm treated at 50 μM vs untreated control sperm): increase pregnancy rates
- average increase of embryos per sow (sows [4]; vs control group, embryos counted after 30 to 35 days, FIG. 5): 2 embryos per sows
- average increase in live piglets born per sow (sows [5]; [7]): ~1 live piglet born per sow
- increase in pregnancy rate (sows [5]; [7]): 5%
- weaning to service interval (WSI) (sows [5]; treated vs untreated control sperm): improved the weaning to service interval
